What all share (assay type): biochemical
For one experiment, the target named is T1, JAK1 (Homo sapiens, UniProt P23458).
T1 construct: purchased Carna Biosciences 08-144
Put plainly: Functional assay of protein Janus kinases (Caliper mobility shift), JAK1. The settings on record: ATP 100 μM, incubation 150 min; read-out: JAK1 enzymatic activity (IC50) score. As for the experimental part: (§1) The functional assays of protein Janus kinases were carried out in 384-well plates using a final volume of 30 μl. […] The reaction was reads in a “Caliper EzReader LabChip 3000” (Caliper, Hopkinton, Mass.) reader, based on electrophoretic mobility of the fluorescent substrate and the phosphorylated product.
(§2) The inhibition percentages were calculated by comparison between control reactions, for 100% of inhibition and reactions with only DMSO for 0% of inhibition.

The next experiment addresses T2, JAK2 (Homo sapiens, UniProt O60674).
T2 construct: purchased Carna Biosciences 08-045
Put plainly: Functional assay of protein Janus kinases (Caliper mobility shift), JAK2. The settings on record: ATP 300 μM, incubation 30 min; read-out: JAK2 enzymatic activity (IC50) score. As for the experimental part:
as §1, §2

The target of the next experiment is T3, JAK3 (Homo sapiens, UniProt P52333).
T3 construct: purchased Carna Biosciences 08-046
T3 sequence (P52333 795-1124 limits assumed): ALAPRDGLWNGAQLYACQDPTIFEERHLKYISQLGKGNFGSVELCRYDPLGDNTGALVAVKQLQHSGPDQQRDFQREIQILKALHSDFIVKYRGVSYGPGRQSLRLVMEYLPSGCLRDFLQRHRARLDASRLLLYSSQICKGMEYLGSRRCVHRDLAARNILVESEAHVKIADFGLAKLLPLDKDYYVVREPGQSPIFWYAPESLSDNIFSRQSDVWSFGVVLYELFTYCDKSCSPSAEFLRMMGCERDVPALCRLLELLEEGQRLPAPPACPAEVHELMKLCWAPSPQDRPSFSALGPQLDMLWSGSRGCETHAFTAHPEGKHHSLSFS
As to the kind of experiment: Functional assay of protein Janus kinases (Caliper mobility shift), JAK3. The settings on record: ATP 8 μM, incubation 30 min; read-out: JAK3 enzymatic activity (IC50) score. As for the experimental part:
as §1, §2

The next experiment has as its target T4, TYK2 (Homo sapiens, UniProt P29597).
T4 construct: purchased Carna Biosciences 08-147
T4 sequence (P29597 871-1187 limits assumed): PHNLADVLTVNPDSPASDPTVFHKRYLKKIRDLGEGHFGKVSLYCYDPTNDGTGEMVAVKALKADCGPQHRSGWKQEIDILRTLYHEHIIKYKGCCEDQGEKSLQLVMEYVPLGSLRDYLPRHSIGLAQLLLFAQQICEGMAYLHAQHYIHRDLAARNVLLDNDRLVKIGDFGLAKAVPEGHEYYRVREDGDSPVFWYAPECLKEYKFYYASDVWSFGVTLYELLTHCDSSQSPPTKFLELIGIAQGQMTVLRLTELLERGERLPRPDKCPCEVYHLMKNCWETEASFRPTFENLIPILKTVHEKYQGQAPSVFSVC
As to the kind of experiment: Functional assay of protein Janus kinases (Caliper mobility shift), TYK2. Conditions: ATP 20 μM, incubation 45 min; read-out: TYK2 enzymatic activity (IC50) score. As for the experimental part: as §1, §2

Results on 22 compounds are retold here after US11021479B2, “Pyridoquinazoline derivatives useful as protein kinase inhibitors” (ONCOSTELLAE, S.L., priority 2017, dated 2021).

Some results are limits rather than exact numbers.

T1 sequence (P23458 850-1154 limits assumed): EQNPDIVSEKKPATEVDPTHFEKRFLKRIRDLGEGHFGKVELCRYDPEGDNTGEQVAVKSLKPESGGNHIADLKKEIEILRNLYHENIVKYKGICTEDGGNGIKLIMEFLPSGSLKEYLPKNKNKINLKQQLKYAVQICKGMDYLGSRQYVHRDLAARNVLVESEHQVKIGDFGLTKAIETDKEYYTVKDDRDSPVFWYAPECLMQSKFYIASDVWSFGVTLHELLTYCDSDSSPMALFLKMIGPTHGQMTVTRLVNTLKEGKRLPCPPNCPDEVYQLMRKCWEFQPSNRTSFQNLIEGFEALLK
T2 sequence (O60674 826-1132 limits assumed): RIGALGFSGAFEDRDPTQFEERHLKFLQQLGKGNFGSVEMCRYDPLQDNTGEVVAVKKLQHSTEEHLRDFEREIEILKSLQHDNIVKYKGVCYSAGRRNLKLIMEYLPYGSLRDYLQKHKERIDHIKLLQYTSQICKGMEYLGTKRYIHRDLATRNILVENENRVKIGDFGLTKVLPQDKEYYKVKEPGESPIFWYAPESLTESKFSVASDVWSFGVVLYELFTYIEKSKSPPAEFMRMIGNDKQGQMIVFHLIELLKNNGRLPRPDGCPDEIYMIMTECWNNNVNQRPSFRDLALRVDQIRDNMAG

Turning to `CN1CCC(NC(=O)c2cccn3c(=O)c4cc(C5CC5)ccc4nc23)CC1` [Example 3, 2-cyclopropyl-N-(1-methylpiperidin-4-yl)-11-oxo-11H-pyrido[2,1-b]quinazoline-6-carboxamide], the IC50 on JAK1 is above 1000 nM; on JAK2 it was above 1000 nM; at JAK3 it was 100 to 1000 nM; on TYK2, above 1000 nM.
For `O=C(NC1CCOCC1)c1cccn2c(=O)c3cc(C4CC4)ccc3nc12` [Example 4, 2-cyclopropyl-11-oxo-N-(tetrahydro-2H-pyran-4-yl)-11H-pyrido[2,1-b]quinazoline-6-carboxamide], the IC50 at JAK1 was above 1000 nM; on JAK2 it was above 1000 nM; at JAK3, 100 to 1000 nM; at TYK2, below 100 nM.
Take `CC1COCCC1NC(=O)c1cccn2c(=O)c3cc(C4CC4)ccc3nc12` (centres unmarked) [Example 5, 2-cyclopropyl-N-(3-methyltetrahydro-2H-pyran-4-yl)-11-oxo-11H-pyrido[2,1-b]quinazoline-6-carboxamide]: the IC50 on JAK1 was above 1000 nM; at JAK2, above 1000 nM; on JAK3, below 100 nM; on TYK2, below 100 nM.
In the case of `C[C@]1(O)CC[C@H](NC(=O)c2cccn3c(=O)c4cc(C5CC5)ccc4nc23)CC1` [Example 6, 2-cyclopropyl-N-((1R,4R)-4-hydroxy-4-methylcyclohexyl)-11-oxo-11H-pyrido[2,1-b]quinazoline-6-carboxamide], the IC50 at JAK1 is above 1000 nM; on JAK2, above 1000 nM; on JAK3 it was below 100 nM; at TYK2, below 100 nM.
Turning to `O=C(N[C@H]1CC[C@H](O)CC1)c1cccn2c(=O)c3cc(C4CC4)ccc3nc12` [Example 7, 2-cyclopropyl-N-((1R,4R)-4-hydroxycyclohexyl)-11-oxo-11H-pyrido[2,1-b]quinazoline-6-carboxamide], the IC50 was above 1000 nM on JAK1, above 1000 nM on JAK2, below 100 nM at JAK3 and 100 to 1000 nM at TYK2.
Regarding `O=C(NC1CCCCC1O)c1cccn2c(=O)c3cc(C4CC4)ccc3nc12` (centres unmarked) [Example 8, 2-cyclopropyl-N-(2-hydroxycyclohexyl)-11-oxo-11H-pyrido[2,1-b]quinazoline-6-carboxamide], the IC50 at JAK1 was above 1000 nM; at JAK2, above 1000 nM; at JAK3, 100 to 1000 nM; at TYK2, below 100 nM.
Regarding `O=C(N[C@@H]1CCCC[C@H]1O)c1cccn2c(=O)c3cc(C4CC4)ccc3nc12` [Example 9, 2-cyclopropyl-N-((1R,2R)-2-hydroxycyclohexyl)-11-oxo-11H-pyrido[2,1-b]quinazoline-6-carboxamide], the IC50 is above 1000 nM on JAK1, above 1000 nM at JAK2, 100 to 1000 nM at JAK3 and above 1000 nM at TYK2.
Take `O=C(N[C@H]1CCCC[C@H]1O)c1cccn2c(=O)c3cc(C4CC4)ccc3nc12` [Example 10, 2-cyclopropyl-N-((1S,2R)-2-hydroxycyclohexyl)-11-oxo-11H-pyrido[2,1-b]quinazoline-6-carboxamide]: the IC50 on JAK1 was above 1000 nM; at JAK2 it was above 1000 nM; on JAK3, below 100 nM; at TYK2 it was below 100 nM.
For the compound `O=C(N[C@@H]1CCCC[C@@H]1O)c1cccn2c(=O)c3cc(C4CC4)ccc3nc12` [Example 11, 2-cyclopropyl-N-((1R,2S)-2-hydroxycyclohexyl)-11-oxo-11H-pyrido[2,1-b]quinazoline-6-carboxamide], the IC50 was above 1000 nM on JAK1, above 1000 nM on JAK2, below 100 nM at JAK3 and 100 to 1000 nM at TYK2.
As for `O=C(N[C@H]1CCCC[C@@H]1O)c1cccn2c(=O)c3cc(C4CC4)ccc3nc12` [Example 12, 2-cyclopropyl-N-((1S,2S)-2-hydroxycyclohexyl)-11-oxo-11H-pyrido[2,1-b]quinazoline-6-carboxamide], the IC50 was above 1000 nM at JAK1, above 1000 nM at JAK2, 100 to 1000 nM at JAK3 and 100 to 1000 nM at TYK2.
With `O=C(NC1CCOC1)c1cccn2c(=O)c3cc(C4CC4)ccc3nc12` (centres unmarked) [Example 14, 2-cyclopropyl-11-oxo-N-(tetrahydrofuran-3-yl)-11H-pyrido[2,1-b]quinazoline-6-carboxamide], the IC50 at JAK1 was above 1000 nM; at JAK2, above 1000 nM; at JAK3 it was 100 to 1000 nM; at TYK2, below 100 nM.
In the case of `O=C(NC1CCC(F)(F)CC1)c1cccn2c(=O)c3cc(C4CC4)ccc3nc12` [Example 15, 2-cyclopropyl-N-(4,4-difluorocyclohexyl)-11-oxo-11H-pyrido[2,1-b]quinazoline-6-carboxamide], the IC50 is above 1000 nM at JAK1, above 1000 nM at JAK2, below 100 nM on JAK3 and 100 to 1000 nM at TYK2.
`O=C(NC1CCCC1)c1cccn2c(=O)c3cc(O)ccc3nc12` [Example 18, N-cyclopentyl-2-hydroxy-11-oxo-11H-pyrido[2,1-b]quinazoline-6-carboxamide]: the IC50 is above 1000 nM on JAK1, above 1000 nM at JAK2, 100 to 1000 nM on JAK3 and below 100 nM on TYK2.
For `O=C(NC1CCCCC1)c1cccn2c(=O)c3cc(F)ccc3nc12` [Example 24, N-cyclohexyl-2-fluoro-11-oxo-11H-pyrido[2,1-b]quinazoline-6-carboxamide], the IC50 on JAK1 was above 1000 nM; on JAK2 it was above 1000 nM; at JAK3 it was 100 to 1000 nM; on TYK2, 100 to 1000 nM.
With `O=C(NC1CCCC1)c1cccn2c(=O)c3cc(Br)ccc3nc12` [Example 25, 2-bromo-N-cyclopentyl-11-oxo-11H-pyrido[2,1-b]quinazoline-6-carboxamide], the IC50 at JAK1 was above 1000 nM; at JAK2, above 1000 nM; at JAK3, below 100 nM; on TYK2 it was below 100 nM.
For `O=C(NC1CCCCC1)c1cccn2c(=O)c3cc(Br)ccc3nc12` [Example 26, 2-bromo-N-cyclohexyl-11-oxo-11H-pyrido[2,1-b]quinazoline-6-carboxamide], the IC50 was above 1000 nM at JAK1, above 1000 nM at JAK2, 100 to 1000 nM on JAK3 and 100 to 1000 nM on TYK2.
Take `O=C(N[C@H]1CCCC[C@H]1O)c1cccn2c(=O)c3cc(Br)ccc3nc12` [Example 27, 2-bromo-N-((1S,2R)-2-hydroxycyclohexyl)-11-oxo-11H-pyrido[2,1-b]quinazoline-6-carboxamide]: the IC50 on JAK1 was above 1000 nM; on JAK2, above 1000 nM; on JAK3 it was 100 to 1000 nM; at TYK2, 100 to 1000 nM.
On to `O=C(NC1CCCCC1)c1cccn2c(=O)c3cc(-c4ccccc4)ccc3nc12` [Example 28, N-cyclohexyl-11-oxo-2-phenyl-11H-pyrido[2,1-b]quinazoline-6-carboxamide], for which the IC50 was above 1000 nM at JAK1, above 1000 nM at JAK2, 100 to 1000 nM on JAK3 and 100 to 1000 nM on TYK2.
On to `O=C(NC1CCCC1)c1cccn2c(=O)c3cc(-c4ccncc4)ccc3nc12` [Example 32, N-cyclopentyl-11-oxo-2-(pyridin-4-yl)-11H-pyrido[2,1-b]quinazoline-6-carboxamide], for which the IC50 is above 1000 nM on JAK1, above 1000 nM on JAK2, 100 to 1000 nM at JAK3 and below 100 nM at TYK2.
Take `O=C(N[C@H]1CCCC[C@H]1O)c1cccn2c(=O)c3cc(-c4ccncc4)ccc3nc12` [Example 34, N-((1S,2R)-2-hydroxycyclohexyl)-11-oxo-2-(pyridin-4-yl)-11H-pyrido[2,1-b]quinazoline-6-carboxamide]: the IC50 at JAK1 is above 1000 nM; at JAK2 it was above 1000 nM; at JAK3, 100 to 1000 nM; on TYK2 it was 100 to 1000 nM.
With `CN1CCN(c2ccc3nc4c(C(=O)NC5CCCC5)cccn4c(=O)c3c2)CC1` [Example 35, N-cyclopentyl-2-(4-methylpiperazin-1-yl)-11-oxo-11H-pyrido[2,1-b]quinazoline-6-carboxamide], the IC50 at JAK1 was above 1000 nM; at JAK2, above 1000 nM; at JAK3, below 100 nM; on TYK2, 100 to 1000 nM.
Regarding `CN1CCN(c2ccc3nc4c(C(=O)N[C@H]5CCCC[C@H]5O)cccn4c(=O)c3c2)CC1` [Example 37, N-((1S,2R)-2-hydroxycyclohexyl)-2-(4-methylpiperazin-1-yl)-11-oxo-11H-pyrido[2,1-b]quinazoline-6-carboxamide], the results for the IC50 at JAK3 and on TYK2 were 100 to 1000 nM and below 100 nM, respectively.
